Assays:
[1] = molecular target: T1, HBV capsid (Hepatitis B virus genotype D subtype ayw, UniProt P03146); test: Mechanistic study in stably HBV expressed HepG2.2.15 cells (capsid, encapsidated DNA/RNA, core protein blots); format: cell-based; details: HepG2.2.15, 6 days
T1 construct: expressed in transfected cells; host or cells: HepG2.2.15
Method: The stably HBV expressed HepG2.2.15 cells were treated with test compounds, at various concentrations in culture medium, at 37° C. for three days. After that the medium was removed and fresh medium containing the compound was added to the cells for another 3 days. After 6 days of treatment, cellular lysates from the treated cells were assessed by non-denatured agarose gel electrophoresis. HBV capsid was detected by western blot with monoclonal anti-HBV core. Encapsidated HBV DNA and RNA were detected by southern blot and northern blot. Intracellular HBV core protein was assessed by western Blot with a monoclonal mouse anti-HBV core. β-actin protein assessed by western blot was used as an internal control.

[2] = system: HBV genotype D; test: HBV-infected primary human hepatocytes (PHH); format: cell-based, Hepatitis B virus; details: treatment scheme 1, southern blot
Method: Primary human hepatocytes (PHH) were infected with HBV genotype D produced from HepG2.2.15 cell line on day 1 after plating. Subsequently, the PHH were treated with various concentrations of compounds into 2 different treatment schemes. For treatment scheme 1, the compounds were added into PHH simultaneously with infection media, and incubated for additional 6 days. For treatment scheme 2, the compounds were added into PHH at day 3 after infection, and further incubated for 6 days. After treatment, the cell culture supernatants were collected for the determinations of HBV DNA by qPCR, pgRNA by RT-PCR, HBsAg and HBeAg by ELISA, and cell viability by CCK-8. The cells were harvested for detection of intracellular cccDNA by southern blot.

[3] = Cytotoxicity (MTT) in HepG2.2.15 cells; format: cell-based; details: human, 6 days treatment, read-out: HepG2.1.15 cytotoxicity (CC50)
Method: HepG2.2.15 cells were seeded onto 96-well culture plate and allowed to adhere for 24 hours. The cells were treated with various concentrations of the compounds for 6 days. After treatment, the culture media were discarded and further incubated with serum-free media containing […] of 3-(4,5-dimethylthiazol-2-yl)-2,5-diphenyl tetrazolium bromide (MTT) for 2 hour. The resulting formazan crystals were completely dissolved in dimethyl sulfoxide (DMSO), and then measured absorbance at 570 nm using microplate reader. The concentrations of compounds producing 50% cell death (CC50) were determined from a fitting of concentration-response curve (% cell viability versus concentration) to a four-parameter equation.

[4] = system: HBV; test: Effect on intrahepatic HBV DNA levels in HepG2.2.15 cells (EC50); format: cell-based; details: Hepatitis B virus, 144 h, 6 days, intrahepatic HBV DNA by qPCR, read-out: Anti-HBV DNA (EC50)
Method: HepG2.2.15 cells were treated with compounds, at various concentrations in 10% FCS containing medium, at 37° C. for three days. After that the medium was removed and fresh medium containing the compound was added to the cells for another 3 days. After 6 days of treatment, intrahepatic HBV DNA from cell lysates were isolated. Then qPCR reaction of DNA was performed to measure total HBV DNA levels using specific primer set. The fifty-percent effective concentrations (EC50) for HBV DNA inhibition, relative to no drug controls, was determined using nonlinear fitting curve model. EC50 ranges for HBV DNA inhibition were as follows: A>0.3 μM, B=0.05-0.3 μM, C<0.05 μM (Table B).

[5] = molecular target: T2, HBV core protein (Cp149) (Hepatitis B virus genotype D subtype ayw, UniProt P03146); test: HBV capsid assembly by size exclusion chromatography (SEC); format: biochemical; details: 50 μM compound, 15 μM Cp149, 16 hours at 21° C.
T2 construct: HBV core C-terminally truncated protein (HBV Cp149); made in house
T2 sequence (P03146 1-149): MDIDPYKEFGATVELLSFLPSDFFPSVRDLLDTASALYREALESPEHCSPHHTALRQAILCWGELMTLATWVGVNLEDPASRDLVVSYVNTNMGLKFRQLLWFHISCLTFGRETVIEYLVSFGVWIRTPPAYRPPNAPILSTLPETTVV

[6] = Pharmacokinetic study in rats; format: in vivo, male Sprague-Dawley rats; details: for F (%) Rat: PO 0.3 to 2.0 mg/kg; for clearance / Vd / half-life: male, Sprague-Dawley, plasma, rat; for clearance: read-out: CL (mL/min/kg) Rat; for Vd: read-out: Vd,ss (L/kg) Rat; for half-life: read-out: t1/2 (h) Rat (converted)
Method: (§1) Test compounds were administered to male Sprague-Dawley rats and male Beagle dogs by oral (PO) and intravenous (TV) administration. For TV dosing, test compounds were dosed at 0.2 to 0.5 mg/kg using a formulation of 10% dimethyl sulfoxide in 20% hydroxypropyl beta-cyclodextrin solution via IV bolus. For PO dosing, test compounds were dosed at 0.3 to 2.0 mg/kg using a formulation of 40% polyethylene glycol 400 in water via oral gavage. Blood samples were collected at pre-dose and various time points up to 24 hours post-dose, and centrifuged to obtain plasma samples. The plasma concentrations of test compounds were quantified by LC-MS/MS methods. The relevant pharmacokinetic parameters (Table D) were calculated via non-compartmental analysis using WinNonlin (Phoenix™, version 8.3).

[7] = system: HBV; test: In vitro anti-HBV activity in HepG2.2.15 cell line (intracellular HBV DNA by qPCR at 1 μM); format: cell-based; details: Hepatitis B virus, 144 h; HepG2.2.15 cells, 1 μM compound, 6 days, intracellular HBV DNA as percentage compared to vehicle control (0.5% DMSO)
Procedure, shortened: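 HepG2.2.15 cells given compound at 1 μM (0.5% DMSO final) for 3 days, then fresh compound-containing medium for 3 more days. After 6 days intracellular HBV DNA measured by qPCR. Expressed as % of 0.5% DMSO vehicle control and binned into letter ranges.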

[8] = Pharmacokinetic study in dogs; format: in vivo, male Beagle dogs
Method: as §1

T1 sequence (P03146 whole entry): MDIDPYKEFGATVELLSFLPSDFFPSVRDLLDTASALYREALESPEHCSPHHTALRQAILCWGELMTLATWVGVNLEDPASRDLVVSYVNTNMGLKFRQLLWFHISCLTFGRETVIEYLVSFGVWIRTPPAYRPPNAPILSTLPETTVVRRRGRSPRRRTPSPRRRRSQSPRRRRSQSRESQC

Compound | CC50 at 6 days [3] [µM] | EC50 [4] [µM] | Size of induced capsids based on SEC retention times [5] | Vd ([6]; IV 0.2 to 0.5 mg/kg) [L/kg] | half-life [6] [h] | activity at 1 µM [7] [%] | other results
C=C1[C@H](CO)[C@@H](O)C[C@@H]1n1cnc2c(=O)[nH]c(N)nc21 [Entecavir, entecavir, reference compound] |  |  |  |  |  |  | HBV capsid (formation of DNA- and RNA-devoid capsid) ([1]; various concentrations): had no effects; Intracellular HBV core protein level ([1]; western blot): had no effects; cccDNA establishment in PHH [2]: had no effect on cccDNA establishment
C[C@H]1[C@@H](C(=O)Nc2ccc(F)c(C#N)c2)CCN1C(=O)c1ccc(C2CC2)[nH]1 [Example 74, (2S,3S)—N-(3-cyano-4-fluorophenyl)-1-(5-cyclopropyl-1H-pyrrole-2-carbonyl)-2-methylpyrrolidine-3-carboxamide] | 10 to 25 | 0.05 to 0.3 | induced capsids similar in size to NVR 3-778 | 0.72 | 3.4 | < 45 | F (%) Rat [6]: ~100%; clearance ([6]; IV 0.2 to 0.5 mg/kg): 3 mL/min/kg
C[C@H]1[C@@H](C(=O)Nc2cc(F)c(F)c(F)c2)CCN1C(=O)c1ccc(-c2ccnnc2)[nH]1 [Example 83, (2S,3S)-2-methyl-1-(5-(pyridazin-4-yl)-1H-pyrrole-2-carbonyl)-N-(3,4,5-trifluorophenyl)pyrrolidine-3-carboxamide] | > 25 | < 0.05 | induced capsids similar in size to NVR 3-778 | 0.13 | 5.5 | < 45 | F (%) Rat [6]: 82%; clearance ([6]; IV 0.2 to 0.5 mg/kg): 0.3 mL/min/kg
Cc1ncnc(C)c1-c1ccc(C(=O)N2CC[C@H](C(=O)Nc3cc(F)c(F)c(F)c3)C2)[nH]1 [Example 85, (S)-1-(5-(4,6-dimethylpyrimidin-5-yl)-1H-pyrrole-2-carbonyl)-N-(3,4,5-trifluorophenyl) pyrrolidine-3-carboxamide] | 10 to 25 | < 0.05 | induced capsids similar in size to NVR 3-778 | 2.88 | 3.6 | < 45 | F (%) Dog ([8]; PO 0.3 to 2.0 mg/kg): ~100%; half-life ([8]; male, Beagle, dog, plasma, read-out: t1/2 (h) Dog (converted)): 6.2 h; clearance ([8]; male, Beagle, plasma, dog, IV 0.2 to 0.5 mg/kg, read-out: CL (mL/min/kg) Dog): 4.4 mL/min/kg; Vd ([8]; male, Beagle, plasma, dog, IV 0.2 to 0.5 mg/kg, read-out: Vd,ss (L/kg) Dog): 1.64 L/kg; CL (mL/min/kg) Rat ([6]; IV 0.2 to 0.5 mg/kg): 15.2 mL/min/kg
Cc1ncnc(C)c1-c1ccc(C(=O)N2CC[C@H](C(=O)Nc3ccc(F)c(Cl)c3)C2)[nH]1 [Example 99, (S)—N-(3-chloro-4-fluorophenyl)-1-(5-(4,6-dimethylpyrimidin-5-yl)-1H-pyrrole-2-carbonyl) pyrrolidine-3-carboxamide] | 10 to 25 | < 0.05 | induced capsids similar in size to NVR 3-778 | 2.34 | 1 | < 45 | F (%) Rat [6]: 36%; clearance ([6]; IV 0.2 to 0.5 mg/kg): 38.4 mL/min/kg
Cc1cc(NC(=O)[C@H]2CCN(C(=O)c3ccc(-c4c(C)cc[nH]c4=O)[nH]3)[C@H]2C)ccc1F [Example 120, (2S,3S)—N-(4-fluoro-3-methylphenyl)-2-methyl-1-(5-(4-methyl-2-oxo-1,2-dihydropyridin-3-yl)-1H-pyrrole-2-carbonyl)pyrrolidine-3-carboxamide] | > 25 | 0.05 to 0.3 | induced capsids similar in size to NVR 3-778 |  |  | < 45 | 
Cc1cc2[nH]ncc2cc1-c1ccc(C(=O)N2CC[C@H](C(=O)Nc3cc(F)c(F)c(F)c3)C2)[nH]1 [Example 122, (S)-1-(5-(6-methyl-1H-indazol-5-yl)-1H-pyrrole-2-carbonyl)-N-(3,4,5-trifluorophenyl) pyrrolidine-3-carboxamide] | 10 to 25 | 0.05 to 0.3 | induced capsids similar in size to NVR 3-778 |  |  | < 45 | 
Cc1cc2[nH]ncc2cc1-c1ccc(C(=O)N2CC[C@H](C(=O)Nc3ccc(F)c(C#N)c3)C2)[nH]1 [Example 123, (S)—N-(3-cyano-4-fluorophenyl)-1-(5-(6-methyl-1H-indazol-5-yl)-1H-pyrrole-2-carbonyl) pyrrolidine-3-carboxamide] | 10 to 25 | 0.05 to 0.3 | induced capsids similar in size to NVR 3-778 |  |  | < 45 | 
Cc1cc(NC(=O)[C@H]2CCN(C(=O)c3ccc(-c4c(C)cn[nH]c4=O)[nH]3)[C@H]2C)ccc1F [Example 125, (2S,3S)—N-(4-fluoro-3-methylphenyl)-2-methyl-1-(5-(5-methyl-3-oxo-2,3-dihydropyridazin-4-yl)-1H-pyrrole-2-carbonyl)pyrrolidine-3-carboxamide] | > 25 | < 0.05 | induced capsids similar in size to NVR 3-778 |  |  | < 45 | 
Cc1c(-c2ccc(C(=O)N3CC[C@H](C(=O)Nc4cc(F)c(F)c(F)c4)C3)[nH]2)ccc2[nH]ncc12 [Example 128, (S)-1-(5-(4-methyl-1H-indazol-5-yl)-1H-pyrrole-2-carbonyl)-N-(3,4,5-trifluorophenyl) pyrrolidine-3-carboxamide] | 10 to 25 | 0.05 to 0.3 | induced capsids similar in size to NVR 3-778 |  |  | < 45 | 
Cc1ncnc(C)c1-c1ccc2c(Cl)c(C(=O)N3CC[C@H](C(=O)Nc4ccc(F)c(C#N)c4)[C@@H]3C)[nH]c2c1 [Example 138, (2S,3S)-1-(3-chloro-6-(4,6-dimethylpyrimidin-5-yl)-1H-indole-2-carbonyl)-N-(3-cyano-4-fluorophenyl)-2-methylpyrrolidine-3-carboxamide] | 10 to 25 | 0.05 to 0.3 | capsid retention times between BAY 41-4109 and NVR 3-778 |  |  | < 45 | 
Cc1cc(NC(=O)[C@H]2CCN(C(=O)c3ccc(-c4cccnc4C#N)[nH]3)C2)ccc1F [Example 150, (S)-1-(5-(2-cyanopyridin-3-yl)-1H-pyrrole-2-carbonyl)-N-(4-fluoro-3-methylphenyl)pyrrolidine-3-carboxamide] | > 25 | 0.05 to 0.3 | induced capsids similar in size to NVR 3-778 |  |  | < 45 | 

— patent US20230391752A1, “PYRROLIDINE-3-CARBOXAMIDE DERIVATIVES AND RELATED USES” (Chulalongkorn University, priority 2020, published 2023)
